These results are taken from paper PMC5785467 (Nature, 2018).

This assay has as its target T1, beetle ICMT (Tribolium castaneum, UniProt D6WJ77).
T1 sequence (D6WJ77 1-281): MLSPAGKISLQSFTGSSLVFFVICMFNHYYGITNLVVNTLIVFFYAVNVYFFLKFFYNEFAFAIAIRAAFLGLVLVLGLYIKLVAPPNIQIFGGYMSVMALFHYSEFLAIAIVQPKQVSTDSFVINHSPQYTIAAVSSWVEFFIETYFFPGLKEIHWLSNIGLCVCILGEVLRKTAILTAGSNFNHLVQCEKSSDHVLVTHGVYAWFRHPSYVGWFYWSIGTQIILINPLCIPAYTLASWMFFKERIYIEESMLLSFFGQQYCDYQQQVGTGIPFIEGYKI
The experiment in a line: X-ray crystal structure, […] Å. The assay is classed as binding. The settings on record: complex with monobody MB-15, lipidic cubic phase; cofactor site.

With `Nc1ncnc2c1ncn2[C@@H]1O[C@H](CSCC[C@H](N)C(=O)O)[C@@H](O)[C@H]1O` [AdoHcy], the “X-ray crystal structure, 2.3 Å” value is recorded as “AdoHcy is encapsulated within a pocket that is formed by the M6–M7 connector”.
